According to patent US11707477B2, “Formulation comprising a gemcitabine-prodrug” (NuCana plc, priority 2014, dated 2023):
Several values for one entry are separate records, joined by “and”; a condition that tells them apart may be missing. Equal entries are not always repeated.

Experiments:
Solubility in water = type: physicochemical; details: regardless of salt content or pH
[1] = Solubility in a range of solvents on dilution; type: physicochemical
Protocol: The protocol adopted was as follows:
A small volume, 1-2 mL, of each solvent system was prepared and a weight of the compound in question was added. The solutions were stirred for approximately 4 hours and then […] membrane filtered. The concentration of the compound in question in the filtrate was then determined by HPLC assay.

[2] = Effect of aqueous dilution on DMA solubility and physical stability; type: physicochemical
From the text: Table 2 gives the effect of aqueous dilution on DMA solubility

[3] = Preferred formulation system: stability; type: physicochemical
Protocol: The final administration formulation is then prepared by diluting this second formulation to the desired concentration with saline.

[4] = Clinical testing of 80:20 DMA:0.9% saline formulation; type: in vivo
[5] = DMA 45.8 mg/mL, 1:3 with 0.9% saline containing […] Tween 80
[6] = DMA 45.8 mg/mL, 1:4.5 with 0.9% saline containing […] Tween 80
[7] = DMA 55.0 mg/mL, 1:3 with 0.9% saline containing […] Tween 80
[8] = DMA 73.3 mg/mL, 1:3 with 0.9% saline containing […] Tween 80
[9] = DMA […] mg/mL, Solvent:Saline (0.9%) 1:3
[10] = PEG 400 87.7 mg/mL, 1:1 glucose
[11] = PEG 400 87.7 mg/mL, 1:2 glucose
[12] = PEG 400, 45.6 mg/mL, 1:1.5 with 0.9% saline containing […] Tween 80
[13] = PEG 400, 45.6 mg/mL, 1:2 with 0.9% saline containing […] Tween 80
[14] = PEG 400, 45.6 mg/mL, 1:2.5 with 0.9% saline containing […] Tween 80
[15] = PEG 400, 91.2 mg/mL, 1:2 with 0.9% saline containing […] Tween 80
[16] = PEG 400, 91.2 mg/mL, Solvent:Saline (0.9%) 1:1
[17] = PEG 400, 91.2 mg/mL, Solvent:Saline (0.9%) 1:2

## C[C@H](NP(=O)(OC[C@H]1O[C@@H](n2ccc(N)nc2=O)C(F)(F)C1O)Oc1ccccc1)C(=O)OCc1ccccc1 (stereo partly drawn) [NUC-1031, 2′-Deoxy-2′,2′-difluoro-D-cytidine-5′-O-[phenyl (benzoxy-L-alaninyl)]phosphate]
Solubility in water
  solubility in water: essentially insoluble in water
[1]; [5]
  Appearance: Clear
  NUC-1031 mg/mL HPLC assay filtrate: 11.5 mg/mL
[1]; DMA 45.8 mg/mL, 1:3.5 with 0.9% saline containing […] Tween 80
  Appearance: Clear
[1]; DMA 45.8 mg/mL, 1:4 with 0.9% saline containing […] Tween 80
  NUC-1031 mg/mL HPLC assay filtrate: 8.4 mg/mL
[1]; DMA 45.8 mg/mL, 1:4 with 0.9% saline containing […] Tween 80 (precipitates >30 min, stirring precipitate dissolves)
  Appearance: Initially clear
[1]; [6]
  Appearance: Slightly turbid
  NUC-1031 mg/mL HPLC assay filtrate: 7.2 mg/mL
[1]; [7]
  Appearance: Slightly turbid
  NUC-1031 mg/mL HPLC assay filtrate: 13.9 mg/mL
[1]; [8]
  Appearance: Precipitation
  NUC-1031 mg/mL HPLC assay filtrate: 14.7 mg/mL
[1]; DMA 92.5 mg/mL, 1:1 glucose
  Appearance: Clear
  Evidence of further precipitation on storage of filtrate at RT >24 h: No
  NUC-1031 mg/mL HPLC assay filtrate: 47.3 mg/mL
[1]; DMA 92.5 mg/mL, 1:2 glucose
  Appearance: Slightly turbid
  Evidence of further precipitation on storage of filtrate at RT >24 h: Yes
  NUC-1031 mg/mL HPLC assay filtrate: 29.7 mg/mL
[1]; [9]
  Appearance: Precipitation
  NUC-1031 mg/mL HPLC assay filtrate: 14.8 mg/mL
[1]; DMA […], 1:2 with 0.9% saline containing […] Tween 80
  NUC-1031 mg/mL HPLC assay filtrate: 30.9 mg/mL
[1]; DMA […], 1:3 with 0.9% saline containing […] Tween 80
  NUC-1031 mg/mL HPLC assay filtrate: 15.2 mg/mL
[1]; DMA […], Solvent:Saline (0.9%) 1:1
  NUC-1031 mg/mL HPLC assay filtrate: 47.0 mg/mL
[1]; DMA […], Solvent:Saline (0.9%) 1:2
  NUC-1031 mg/mL HPLC assay filtrate: 30.2 mg/mL
[1]; NMP 115.0 mg/mL, 1:1 glucose
  Appearance: Slightly turbid
  Evidence of further precipitation on storage of filtrate at RT >24 h: No
  NUC-1031 mg/mL HPLC assay filtrate: 58.5 mg/mL
[1]; NMP 115.0 mg/mL, 1:1 saline
  Appearance: Slightly turbid
  Evidence of further precipitation on storage of filtrate at RT >24 h: No
  NUC-1031 mg/mL HPLC assay filtrate: 60.0 mg/mL
[1]; NMP 115.0 mg/mL, 1:2 glucose
  Appearance: Slightly turbid
  Evidence of further precipitation on storage of filtrate at RT >24 h: Yes
  NUC-1031 mg/mL HPLC assay filtrate: 39.6 mg/mL
[1]; NMP 115.0 mg/mL, 1:2 saline
  Appearance: Slightly turbid
  Evidence of further precipitation on storage of filtrate at RT >24 h: Yes
  NUC-1031 mg/mL HPLC assay filtrate: 40.5 mg/mL
[1]; NMP and DMA solutions, dilution 1:1 with water or saline
  evidence of precipitation after dilution: did not show any evidence of precipitation
[1]; [10]
  Appearance: Slightly turbid
  Evidence of further precipitation on storage of filtrate at RT >24 h: Yes
  NUC-1031 mg/mL HPLC assay filtrate: 46.1 mg/mL
[1]; [11]
  Appearance: Turbid
  Evidence of further precipitation on storage of filtrate at RT >24 h: No
  NUC-1031 mg/mL HPLC assay filtrate: 17.4 mg/mL
[1]; [12]
  Appearance: Clear
  Evidence of further precipitation on storage of filtrate at RT >24 h: Yes
[1]; [13]
  Appearance: Clear
  Evidence of further precipitation on storage of filtrate at RT >24 h: Yes
[1]; [14]
  Appearance: Precipitation,
  Evidence of further precipitation on storage of filtrate at RT >24 h: Yes
  NUC-1031 mg/mL HPLC assay filtrate: 10.5 mg/mL
[1]; [15]
  Appearance: Slightly turbid
  Evidence of further precipitation on storage of filtrate at RT >24 h: Yes
  NUC-1031 mg/mL HPLC assay filtrate: 18.8 mg/mL
[1]; [16]
  Appearance: Clear
  Evidence of further precipitation on storage of filtrate at RT >24 h: Yes
[1]; [17]
  Appearance: Precipitation
  Evidence of further precipitation on storage of filtrate at RT >24 h: Yes
  NUC-1031 mg/mL HPLC assay filtrate: 16.2 mg/mL
[2]; 50:50 DMA:0.9% Saline
  Assay: 66 mg/mL
  Precipitation > 24 hours: Yes
[2]; 60:40 DMA:0.9% Saline
  Assay: 293 mg/mL
  Precipitation > 24 hours: Yes
[2]; 70:30 DMA:0.9% Saline
  Assay: 339 mg/mL
  Precipitation > 24 hours: Yes
[2]; 80:20 DMA in 0.9% Saline, assay 270 mg/ml
  Precipitation (2 weeks): Yes
[2]; 80:20 DMA in 0.9% Saline, assay 272 mg/ml
  Precipitation (2 weeks): No
[2]; 80:20 DMA in 0.9% Saline, assay 315 mg/ml
  Precipitation (2 weeks): Yes
[2]; 80:20 DMA:0.9% Saline
  Assay: 386 mg/mL
  Precipitation > 24 hours: Yes
[2]; 85:15 DMA in 0.9% Saline, assay 338 mg/ml
  Precipitation (2 weeks): No
[2]; 90:10 DMA:0.9% Saline
  Assay: 483 mg/mL
  Precipitation > 24 hours: No
[2]; 95:5 DMA:0.9% Saline
  Assay: 518 mg/mL
  Precipitation > 24 hours: No
[2]; 100% DMA
  Assay: 592 mg/mL
  Precipitation > 24 hours: No
[2]; Table 2a, 80:20 DMA solution in 0.9% Saline
  Assay: 304 mg/mL and 272 mg/mL and 315 mg/mL and 270 mg/mL
[2]; Table 2a, 85:15 DMA solution in 0.9% Saline
  Assay: 338 mg/mL
[3]; 250 mg/mL in 80:20 (by volume) DMA:0.9% saline
  stability for storage and transport: sufficiently stable for long term storage and transport
[3]; 4, 8 and 10 mg/mL in 0.45% and 0.9% saline
  osmolarity: acceptable for peripheral administration
[3]; 4, 8 and 10 mg/mL, 0.45% and 0.9% saline, pH 4.5, 6.0 and 7.0, not stirred
  time stable to precipitation and to degradation after dilution: 48 h
[4]; 250 mg NUC-1031 in 80:20 DMA:0.9% saline solution, 5 ml vial
  treatment outcome in the clinical study: successful treatment
[4]; 250 mg NUC-1031 in 80:20 DMA:0.9% saline, needed to be administered by a central line
  tolerability of injection: pain on injection
